Assay results from patent US5128363A, “Trifluoromethoxy substituted 1,3,4,9-tetrahydropyrano-[3,4-b]indole-1-acetic acids” (American Home Products Corporation, priority 1990, dated 1992).

Key:
[1] = system: mice injected with a chemical irritant; test: Phenylbenzoquinone-induced Writhing in Mice; format: in vivo, Male Swiss albino mice; conditions: Mus musculus, po; for ED50: read-out: Phenylquinone Writhing in Mice, ED50
Procedure: A further test used to determine the utility of the compounds of the present invention is designated: Drug Effects on Phenylbenzoquinone-induced Writhing in Mice.
The objective of this test is to determine the ability of test drugs to inhibit the nociceptive (pain) response of mice injected with a chemical irritant. This test is a primary screen for both peripheral and centrally acting analgesic drugs.
Male Swiss albino mice (15-25 g). The animals are fasted for 18 hours prior to use but have free access to water.
Drug Preparation and Administration:
Drugs are dissolved or suspended according to their solubility in 0.5% Tween 80 in distilled water. They are administered by gastric gavage in a volume of 5 mL/kg. For primary screening all drugs are administered at the arbitary dosage of 10 mg/kg, p.o. to a group of 10 mice.
A modification of the method of Siegmund et al, Proc. Soc. Exp. Biol. Med., 95, 729-731 (1957) is used. Groups of 5 mice are dosed with the test compound or vehicle control. Sixty minutes later the animals are injected i.p. with 0.3 mL/20 g body weight of a 0.02% solution of phenylbenzoquinone (PBQ; 2-phenyl-1,4-benzoquinone) and placed in individual observation boxes. The number of writhing or abdominal squirming movements made by each mouse during the following 15 min. period is counted. The experiment is repeated with another group of 5 mice and the mean number of writhes per mouse for a group of 10 mice is calculated.
Drug treated and vehicle-treated control groups are compared and the percentage protection conferred by the drug is calculated: [formula] where c=mean number of writhes in the control group where t=mean number of writhes in the test drug group

[2] = system: rats injected intradermally in the left hind paw with Freund's complete adjuvant; test: Preventative Adjuvant Edema; format: in vivo, Male Sprague Dawley rats; conditions: Rattus norvegicus, po, 25 mg/kg p.o., edema volume day 3 vs day 0, read-out: Preventative Adjuvant Edema, percent inhibition
Procedure: This test is a primary screen for anti-inflammatory drugs.
Male Sprague Dawley rats (180-200 g) are used. The animals have free access to water but food is withdrawn 18 hours before testing.
Drug Preparations and Administration:
Freund's complete adjuvant is prepared by suspending 5 mg of killed and dried Mycobacterium butyricum (Difco) in 1 mL mineral oil. The test compounds are dissolved, or suspended in 0.5% Tween 80 in distilled water according to their solubility. For primary screening all drugs are administered by gastric gavage at the arbitrary dosage of 25 mg/kg, p.o. in a volume of 0.5 mL/100 g body weight to groups of 10 animals.
The method is essentially that described by Wax et al, J. Pharmacol. Exp. Ther., 192, 166-171 (1975). Groups of rats are injected intradermally in the left hind paw with 0.1 mL of Freund's complete adjuvant. […] The injected hind paw volume is measured before the injection of adjuvant and 24 hrs. after the last drug administration (day 3) by means of a plethysmometer (Buxco Electronics Inc.). […]
The mean edema volume (expressed as mL±SEM) is calculated for each group and the percentage protection conferred by the drug is calculated: [formula] where c is the mean edema volume for the vehicle-treated (0.5% Tween 80 in distilled water) controls and t is the means edema volume for the drug treated group.

[3] = system: rats with established adjuvant arthritis; test: Curative Adjuvant Arthritis; format: in vivo, Male inbred Wistar Lewis rats; conditions: for Injected Paw Edema / Non-Injected Paw Edema: change day 16 to day 25; for Body Weight Change: day 16 to day 25
Excerpt: An additional test used to determine the utility of the compounds of the present invention is designated: Curative Adjuvant Arthritis. The objective of this test is to evaluate the ability of drugs to decrease edema in rats with established adjuvant arthritis in order to characterize further the anti-inflammatory activity of the compounds of the present invention. Species Male inbred Wistar Lewis rats with an initial body weight of 180-200 g were used. The animals had free access to food and water throughout the test. Drug Preparations and Administration Freund's Complete Adjuvant (FCA) was prepared by suspending 5 mg killed and dried Mycobacterium butyricum (Difco) in 1 mL mineral oil. The test compounds were dissolved, or suspended with a few drops of Tween 80, in distilled water according to their solubility. […] The volume of both hind paws were measured and body weight recorded at that time. On day 16 after FCA injection the volume of both hind paws were again measured. […] Mean body weight for each group was recorded. Drug or vehicle treatment was initiated on day 16. Animals were dosed daily from day 16 to day 25 (i.e. a total of […]). The volume of both hind paws and the body weight of the animal was recorded 2 hours after the last drug administration. Vehicle treated arthritic animals acted as a vehicle-treated control group and animals treated with etodolac (3 mg/kg po) acted as a positive control group. […] The ED50, or dose which causes such an effect in 50% animals, is calculated by probit analysis.

CCC1(CC(=O)O)OCCc2c1[nH]c1cc(OC(F)(F)F)ccc21 (centres unmarked) [1-Ethyl-1,3,4,9-tetrahydro-7-(trifluoromethoxy)-pyrano[3,4-b]indole-1-acetic Acid]
inhibition at 10 mg/kg ([1]; 10 mg/kg p.o., read-out: Phenylquinone Writhing in Mice, percent inhibition): 47% | ED50 [1]: 24 mg/kg | inhibition at 25 mg/kg [2]: 88% | Injected Paw Edema ([3]; 0.3 mg/kg/day p.o.): +0.53 mL | Non-Injected Paw Edema ([3]; 0.3 mg/kg/day p.o.): +1.21 mL | Body Weight Change ([3]; 0.3 mg/kg/day p.o.): +2 g | anti-inflammatory effect relative to etodolac ([3]; 1 mg/kg/day p.o.): intermediate between that produced by 1 and 3 mg/kg etodolac | Injected Paw Edema ([3]; 1 mg/kg/day p.o.): -0.18 mL | Non-Injected Paw Edema ([3]; 1 mg/kg/day p.o.): +0.35 mL | Body Weight Change ([3]; 1 mg/kg/day p.o.): +2 g | Injected Paw Edema ([3]; 3 mg/kg/day p.o.): -0.60 mL | Non-Injected Paw Edema ([3]; 3 mg/kg/day p.o.): +0.11 mL | Body Weight Change ([3]; 3 mg/kg/day p.o.): +20 g | health as assessed by body weight gain ([3]; highest dose, 3 mg/kg/day): appeared healthy | potency relative to etodolac ([3]; more potent than etodolac, curative adjuvant arthritis): approximately 2 fold

CCc1cccc2c3c([nH]c12)C(CC)(CC(=O)O)OCC3 (centres unmarked) [etodolac, reference compound]
ED50 [1]: 168 mg/kg | inhibition at 25 mg/kg [2]: 68% | Injected Paw Edema ([3]; 0.3 mg/kg/day p.o.): +1.12 mL | Non-Injected Paw Edema ([3]; 0.3 mg/kg/day p.o.): +1.86 mL | Body Weight Change ([3]; 0.3 mg/kg/day p.o.): -3 g | Injected Paw Edema ([3]; 1 mg/kg/day p.o.): +0.40 mL | Non-Injected Paw Edema ([3]; 1 mg/kg/day p.o.): +1.14 mL | Body Weight Change ([3]; 1 mg/kg/day p.o.): -9 g | Injected Paw Edema ([3]; 3 mg/kg/day p.o.): -0.28 mL | Non-Injected Paw Edema ([3]; 3 mg/kg/day p.o.): +0.51 mL | Body Weight Change ([3]; 3 mg/kg/day p.o.): +10 g
